Two molecules from patent US9358276B2, “Methods of diagnosing and treating small intestinal bacterial overgrowth (SIBO) and SIBO-related conditions” (Cedars-Sinai Medical Center, priority 1999, dated 2016) can be followed below.

For this experiment, the system named is SIBO-related hyperalgesia. Description: Treatment of SIBO-related hyperalgesia (cases). The format is in vivo, human. The protocol:
Two adult female subjects with IBS required additional pharmacologic manipulations to treat their SIBO-related hyperalgesia. In the first case, SIBO was eradicated by antibiotic treatment. However, the subject complained of persistent feelings of rectal distension, consistent with residual hyperalgesia related to SIBO. The subjected was then administered Colpermin (peppermint oil) capsules and Elavil (5 mg taken at night) that alleviated their SIBO-related hyperalgesic symptoms, presumably by reducing intestinal wall tension and decreasing mechanoreceptor activation.
The second subject with a diagnosis of IBS was also found to have SIBO, as detected by LBHT. Their SIBO was eradicated by a combined treatment with antibiotic, intestinal lavage with Go-Lytely, and cisapride (10 mg tid) to increase their abnormally low phase III interdigestive motility. After eradication of SIBO, this subject similarly complained of persistent SIBO-related hyperalgesic symptoms of the bowel.

Each structure is given as a SMILES string.

On to `CN(C)CCC=C1c2ccccc2CCc2ccccc21` [Elavil, amitriptyline], for which the SIBO-related hyperalgesic symptoms result (first subject, Colpermin capsules and Elavil (5 mg at night) together) is given as “alleviated”. For `COc1cc(N)c(Cl)cc1C(=O)NC1CCN(CCCOc2ccc(F)cc2)CC1OC` (centres unmarked) [cisapride], for the setting “second subject, combined antibiotic, lavage with Go-Lytely and cisapride (10 mg tid)”, the “eradication of SIBO” value is “eradicated”.
